{"source": "patent US20260191887A1", "about": "“METHODS OF TREATING INFLAMMATION” (THERAPEUTIKOS, INC., priority 2022, published 2026)", "key": {"[1]": {"tested_on": "primary mouse peritoneal macrophages", "assay": "WST-1 assay in LPS-activated primary mouse peritoneal macrophages", "type": "cell-based", "conditions": "LPS 100 ng/mL, doses of up to 1 mM, 24 h, n=8", "description": "• 1. Non treatment (NT) • 2. LPS 100 ng/mL • 3. LPS 100 ng/mL+NDX1 dose1* • 4. LPS 100 ng/mL+NDX1 dose2* • 5. LPS 100 ng/mL+NDX1 dose3* • 6. LPS 100 ng/mL+NDX2 dose1 • 7. LPS 100 ng/mL+NDX2 dose2 • 8. LPS 100 ng/mL+NDX2 dose3 • 9. LPS 100 ng/mL+NAG dose2 • 10. LPS 100 ng/mL+NAG dose3 (*dose 1, 2, 3 were selected as low, middle and high dose with no cytotoxicity from the cytotoxic assay) The peritoneal macrophages were isolated from peritoneal cavity, and cultured in Dulbecco's modified Eagle's medium (DMEM, Gibco BRL, Gaithersburg, MD) supplemented with 10% fetal bovine serum (FBS) (Hyclone Laboratories, Logan, VT) and 100 IU/mL penicillin G and 100 µg/mL streptomycin, in a humidified atmosphere of 5% carbon dioxide at 37° C. Cells will grow on a 96-well plate and co-treated with 100 ng/ml LPS (Sigma-Aldrich) 0.5 hours after addition of BNAGs and NAG. Twenty-four hours later, the cell number was counted by using the WST-1 kit (Fisher Scientific). After removal of the supernatant, […] new medium was added into each cell. Then 15 μl Cell Proliferation Reagent WST-1 was added and incubated with cells for 3 hours in dark with a humidified atmosphere of 5% carbon dioxide at 37° C. Each sample was determined at 450 nm on a microplate reader."}, "[2]": {"tested_on": "TNFα", "assay": "TNFα ELISA in LPS-activated primary mouse peritoneal macrophages", "type": "cell-based", "conditions": "LPS 100 ng/mL; NDX1 and NDX2 0.01, 0.1, 1 mM; NAG 0.1 and 1 mM; n=8", "description": "• 1. Non treatment (NT) • 2. LPS 100 ng/mL • 3. LPS 100 ng/mL+NDX1 dose1* • 4. LPS 100 ng/mL+NDX1 dose2* • 5. LPS 100 ng/mL+NDX1 dose3* • 6. LPS 100 ng/mL+NDX2 dose1 • 7. LPS 100 ng/mL+NDX2 dose2 • 8. LPS 100 ng/mL+NDX2 dose3 • 9. LPS 100 ng/mL+NAG dose2 • 10. LPS 100 ng/mL+NAG dose3 (*dose 1, 2, 3 were selected as low, middle and high dose with no cytotoxicity from the cytotoxic assay)\nThe peritoneal macrophages were isolated from peritoneal cavity, and cultured in Dulbecco's modified Eagle's medium (DMEM, Gibco BRL, Gaithersburg, MD) supplemented with 10% fetal bovine serum (FBS) (Hyclone Laboratories, Logan, VT) and 100 IU/mL penicillin G and 100 µg/mL streptomycin, in a humidified atmosphere of 5% carbon dioxide at 37° C. Cells will grow on a 96-well plate and co-treated with 100 ng/ml LPS (Sigma-Aldrich) 0.5 hours after addition of BNAGs and NAG. Twenty-four hours later, the cell number was counted by using the WST-1 kit (Fisher Scientific). After removal of the supernatant, […] new medium was added into each cell. […] Each sample was determined at 450 nm on a microplate reader.\nThe amounts of IL-6 and TNFα were measured by a commercial ELISA kit (Sigma-Aldrich), following the instructions provided by the manufacturer. […] The resultant solutions were read at 450 nm on a microplate reader."}}}
{"smiles": "CC(=O)N[C@H]1C(O)O[C@H](CO)[C@@H](O)[C@@H]1O", "note": "(some centres unmarked) [NAG, N-acetyl glucosamine]", "values": [{"measurement": "effect on cell number (WST-1) compared with LPS alone", "setting": "[1]", "value": "no significant effect on cell number"}, {"measurement": "reduction of TNFa production (ELISA)", "setting": "[2]", "value": "could significantly reduce IL-6 and TNFa production"}]}
